Laboratory results as given in US10004701B2, “Methods and compositions for treating infection” (UNIVERSITY OF ROCHESTER, priority 2012, dated 2018).
Where a name gives a salt, the structure may show the parent alone. Read-outs that look alike come from different tables or passages of the source.

Columns and labels:
Assay in all cases: AK assay 384-well format, Prestwick library screening
[1] = test system: S. aureus strain USA300-0114; assay type: cell-based, Staphylococcus aureus; details: 50 μM final drug concentration; for fold induction at 50 µM: Staphylococcus aureus, USA300, 3 h
[2] = test system: A. baumannii strain 98-37-09; assay type: cell-based, Acinetobacter baumannii; details: 50 μM final drug concentration; for fold induction at 50 µM: Acinetobacter baumannii, 983709, 3 h
E. faecium = assay type: cell-based, Enterococcus faecium; details: 50 μM final drug concentration; for fold induction at 50 µM: Enterococcus faecium, 3 h
P. aeruginosa = assay type: cell-based, Pseudomonas aeruginosa; details: 50 μM final drug concentration; for fold induction at 50 µM: Pseudomonas aeruginosa, 3 h
K. pneumoniae = assay type: cell-based, Klebsiella pneumoniae; details: 50 μM final drug concentration; for fold induction at 50 µM: Klebsiella pneumoniae, 3 h
E. cloacae = assay type: cell-based, Enterobacter cloacae; details: 50 μM final drug concentration; for fold induction at 50 µM: Enterobacter cloacae, 3 h
E. coli = assay type: cell-based, Escherichia coli; details: 50 μM final drug concentration; for fold induction at 50 µM: Escherichia coli, 3 h
[3] = cutoff for positive-scoring molecules 3-fold increase, read-out: AK-based Prestwick Library Screening Results, S. aureus (fold increase in extracellular AK activity)
[4] = cutoff for positive-scoring molecules 3-fold increase, read-out: AK-based Prestwick Library Screening Results, A. baumannii (fold increase in extracellular AK activity)
[5] = cutoff for positive-scoring molecules 3-fold increase, read-out: AK-based Prestwick Library Screening Results, E. faecium (fold increase in extracellular AK activity)
[6] = cutoff for positive-scoring molecules 3-fold increase, read-out: AK-based Prestwick Library Screening Results, P. aeruginosa (fold increase in extracellular AK activity)
[7] = cutoff for positive-scoring molecules 3-fold increase, read-out: AK-based Prestwick Library Screening Results, K. pneumoniae (fold increase in extracellular AK activity)
[8] = cutoff for positive-scoring molecules 3-fold increase, read-out: AK-based Prestwick Library Screening Results, E. cloacae (fold increase in extracellular AK activity)
[9] = cutoff for positive-scoring molecules 3-fold increase, read-out: AK-based Prestwick Library Screening Results, E. coli (fold increase in extracellular AK activity)
[10] = 384-well format, cutoff for positive-scoring molecules 3-fold increase, read-out: AK-based Prestwick Library Screening Results, S. aureus (increase in extracellular AK activity)
[11] = 384-well format, cutoff for positive-scoring molecules 3-fold increase, read-out: AK-based Prestwick Library Screening Results, A. baumannii (increase in extracellular AK activity)
[12] = 384-well format, cutoff for positive-scoring molecules 3-fold increase, read-out: AK-based Prestwick Library Screening Results, E. faecium (increase in extracellular AK activity)
[13] = 384-well format, cutoff for positive-scoring molecules 3-fold increase, read-out: AK-based Prestwick Library Screening Results, P. aeruginosa (increase in extracellular AK activity)
[14] = 384-well format, cutoff for positive-scoring molecules 3-fold increase, read-out: AK-based Prestwick Library Screening Results, K. pneumoniae (increase in extracellular AK activity)
[15] = 384-well format, cutoff for positive-scoring molecules 3-fold increase, read-out: AK-based Prestwick Library Screening Results, E. cloacae (increase in extracellular AK activity)
[16] = 384-well format, cutoff for positive-scoring molecules 3-fold increase, read-out: AK-based Prestwick Library Screening Results, E. coli (increase in extracellular AK activity)

With `CC(=O)OCC1=C(C(=O)O)N2C(=O)[C@@H](N)[C@H]2SC1` [Cephalosporanic acid, 7-amino] the “AK-based Prestwick Library Screening Results, S. aureus (increase in extracellular AK activity)” value ([1]; planktonic S. aureus, […]) was 0.6, the “AK-based Prestwick Library Screening Results, A. baumannii (increase in extracellular AK activity)” value ([2]; planktonic A. baumannii, […]) was 0.8 and the “AK-based Prestwick Library Screening Results, E. faecium (increase in extracellular AK activity)” value (E. faecium; planktonic E. faecium, […]) was 0.9. The “AK-based Prestwick Library Screening Results, P. aeruginosa (increase in extracellular AK activity)” value (P. aeruginosa; planktonic P. aeruginosa, […]) was 0.8, the “AK-based Prestwick Library Screening Results, K. pneumoniae (increase in extracellular AK activity)” value (K. pneumoniae; planktonic K. pneumoniae, […]) was 0.7 and the “AK-based Prestwick Library Screening Results, E. cloacae (increase in extracellular AK activity)” value (E. cloacae; planktonic E. cloacae, […]) was 0.8. The “AK-based Prestwick Library Screening Results, E. coli (increase in extracellular AK activity)” value (E. coli; planktonic E. coli, […]) was 0.9.
For `NC(CO)C(=O)NNCc1ccc(O)c(O)c1O` (centres unmarked) [Benserazide hydrochloride], the fold induction at 50 µM [1, 3] was 1.4, the fold induction at 50 µM [2, 4] was 1 and the fold induction at 50 µM (E. faecium; [5]) was 0.9. It also gave a fold induction at 50 µM (P. aeruginosa; [6]) of 1.1, a fold induction at 50 µM (K. pneumoniae; [7]) of 1.2 and a fold induction at 50 µM (E. cloacae; [8]) of 1.8. It also gave a fold induction at 50 µM (E. coli; [9]) of 1.3.
With `CC/C(=C(\c1ccccc1)c1ccc(OCCN(C)C)cc1)c1ccccc1` [Tamoxifen citrate] the fold induction at 50 µM ([1]; planktonic S. aureus, 384-well, cutoff for positive-scoring molecules 3-fold increase, read-out: AK-based Prestwick Library Screening Results: S. aureus (increase in extracellular AK activity)) was 2.1, the fold induction at 50 µM ([2]; planktonic A. baumannii, 384-well, cutoff for positive-scoring molecules 3-fold increase, read-out: AK-based Prestwick Library Screening Results: A. baumannii (increase in extracellular AK activity)) was 6.6 and the fold induction at 50 µM (E. faecium; planktonic E. faecium, 384-well, cutoff for positive-scoring molecules 3-fold increase, read-out: AK-based Prestwick Library Screening Results: E. faecium (increase in extracellular AK activity)) was 4. It also gave a fold induction at 50 µM (P. aeruginosa; planktonic P. aeruginosa, 384-well, cutoff for positive-scoring molecules 3-fold increase, read-out: AK-based Prestwick Library Screening Results: P. aeruginosa (increase in extracellular AK activity)) of 1.4, a fold induction at 50 µM (K. pneumoniae; planktonic K. pneumoniae, 384-well, cutoff for positive-scoring molecules 3-fold increase, read-out: AK-based Prestwick Library Screening Results: K. pneumoniae (increase in extracellular AK activity)) of 2.1 and a fold induction at 50 µM (E. cloacae; planktonic E. cloacae, 384-well, cutoff for positive-scoring molecules 3-fold increase, read-out: AK-based Prestwick Library Screening Results: E. cloacae (increase in extracellular AK activity)) of 1.3. The fold induction at 50 µM (E. coli; planktonic E. coli, 384-well, cutoff for positive-scoring molecules 3-fold increase, read-out: AK-based Prestwick Library Screening Results: E. coli (increase in extracellular AK activity)) was 1.9.
For `CCCCNc1ccc(C(=O)OCCN(C)C)cc1` [Tetracaine hydrochloride], the fold induction at 50 µM ([1]; planktonic S. aureus, cutoff for positive-scoring molecules 3-fold increase, read-out: AK-based Prestwick Library Screening Results, S. aureus (increase in extracellular AK activity)) was 0.6, the fold induction at 50 µM ([2]; planktonic A. baumannii, cutoff for positive-scoring molecules 3-fold increase, read-out: AK-based Prestwick Library Screening Results, A. baumannii (increase in extracellular AK activity)) was 0.8 and the fold induction at 50 µM (E. faecium; planktonic E. faecium, cutoff for positive-scoring molecules 3-fold increase, read-out: AK-based Prestwick Library Screening Results, E. faecium (increase in extracellular AK activity)) was 0.9. It also gave a fold induction at 50 µM (P. aeruginosa; planktonic P. aeruginosa, cutoff for positive-scoring molecules 3-fold increase, read-out: AK-based Prestwick Library Screening Results, P. aeruginosa (increase in extracellular AK activity)) of 0.8, a fold induction at 50 µM (K. pneumoniae; planktonic K. pneumoniae, cutoff for positive-scoring molecules 3-fold increase, read-out: AK-based Prestwick Library Screening Results, K. pneumoniae (increase in extracellular AK activity)) of 0.6 and a fold induction at 50 µM (E. cloacae; planktonic E. cloacae, cutoff for positive-scoring molecules 3-fold increase, read-out: AK-based Prestwick Library Screening Results, E. cloacae (increase in extracellular AK activity)) of 0.9. It also gave a fold induction at 50 µM (E. coli; planktonic E. coli, cutoff for positive-scoring molecules 3-fold increase, read-out: AK-based Prestwick Library Screening Results, E. coli (increase in extracellular AK activity)) of 0.9.
For `C[C@](N)(Cc1ccc(O)c(O)c1)C(=O)O` [Methyldopa (L,−)], the “AK-based Prestwick Library Screening Results: S. aureus (increase in extracellular AK activity)” value ([1]; planktonic S. aureus, 384-well, cutoff for positive-scoring molecules 3-fold increase) was 0.4, the “AK-based Prestwick Library Screening Results: A. baumannii (increase in extracellular AK activity)” value ([2]; planktonic A. baumannii, 384-well, cutoff for positive-scoring molecules 3-fold increase) was 0.5 and the “AK-based Prestwick Library Screening Results: E. faecium (increase in extracellular AK activity)” value (E. faecium; planktonic E. faecium, 384-well, cutoff for positive-scoring molecules 3-fold increase) was 0.9. For the same compound, the “AK-based Prestwick Library Screening Results: P. aeruginosa (increase in extracellular AK activity)” value (P. aeruginosa; planktonic P. aeruginosa, 384-well, cutoff for positive-scoring molecules 3-fold increase) was 0.4, the “AK-based Prestwick Library Screening Results: K. pneumoniae (increase in extracellular AK activity)” value (K. pneumoniae; planktonic K. pneumoniae, 384-well, cutoff for positive-scoring molecules 3-fold increase) was 0.6 and the “AK-based Prestwick Library Screening Results: E. cloacae (increase in extracellular AK activity)” value (E. cloacae; planktonic E. cloacae, 384-well, cutoff for positive-scoring molecules 3-fold increase) was 0.5. For the same compound, the “AK-based Prestwick Library Screening Results: E. coli (increase in extracellular AK activity)” value (E. coli; planktonic E. coli, 384-well, cutoff for positive-scoring molecules 3-fold increase) was 0.6.
`C[C@H]1[C@H](NC(=O)/C(=N\OC(C)(C)C(=O)O)c2csc(N)n2)C(=O)N1S(=O)(=O)O` [Aztreonam] was tested, and the fold induction at 50 µM [1, 10] was 0.6, the fold induction at 50 µM [2, 11] was 5.4 and the fold induction at 50 µM (E. faecium; [12]) was 1. It also gave a fold induction at 50 µM (P. aeruginosa; [13]) of 9.1, a fold induction at 50 µM (K. pneumoniae; [14]) of 2.6 and a fold induction at 50 µM (E. cloacae; [15]) of 18.4. The fold induction at 50 µM (E. coli; [16]) was 15.9.
Work on `CCOc1cc(CC(=O)N[C@@H](CC(C)C)c2ccccc2N2CCCCC2)ccc1C(=O)O` [Repaglinide] yielded a fold induction at 50 µM [1, 3] of 0.3, a fold induction at 50 µM [2, 4] of 0.4 and a fold induction at 50 µM (E. faecium; [5]) of 0.9. For the same compound, the fold induction at 50 µM (P. aeruginosa; [6]) was 0.4, the fold induction at 50 µM (K. pneumoniae; [7]) was 0.4 and the fold induction at 50 µM (E. cloacae; [8]) was 0.4. It also gave a fold induction at 50 µM (E. coli; [9]) of 0.4.
In the case of `CC(C)(C)NC[C@H](O)COc1ccccc1C1CCCC1` [Penbutolol sulfate], the fold induction at 50 µM [1, 3] was 0.4, the fold induction at 50 µM [2, 4] was 0.4 and the fold induction at 50 µM (E. faecium; [5]) was 0.8. The fold induction at 50 µM (P. aeruginosa; [6]) was 0.5, the fold induction at 50 µM (K. pneumoniae; [7]) was 0.5 and the fold induction at 50 µM (E. cloacae; [8]) was 0.4. The fold induction at 50 µM (E. coli; [9]) was 0.5.
Compound `CCC[C@H](N[C@@H](C)C(=O)N1[C@H](C(=O)O)C[C@@H]2CCCC[C@@H]21)C(=O)OCC` [Perindopril] has a fold induction at 50 µM ([1]; planktonic S. aureus, positive cutoff 3-fold increase, read-out: AK-based Prestwick library screening result, S. aureus (fold increase in extracellular AK activity)) of 1.1, a fold induction at 50 µM ([2]; planktonic A. baumannii, positive cutoff 3-fold increase, read-out: AK-based Prestwick library screening result, A. baumannii (fold increase in extracellular AK activity)) of 1.4 and a fold induction at 50 µM (E. faecium; planktonic E. faecium, positive cutoff 3-fold increase, read-out: AK-based Prestwick library screening result, E. faecium (fold increase in extracellular AK activity)) of 1. For the same compound, the fold induction at 50 µM (P. aeruginosa; planktonic P. aeruginosa, positive cutoff 3-fold increase, read-out: AK-based Prestwick library screening result, P. aeruginosa (fold increase in extracellular AK activity)) was 1.2, the fold induction at 50 µM (K. pneumoniae; planktonic K. pneumoniae, positive cutoff 3-fold increase, read-out: AK-based Prestwick library screening result, K. pneumoniae (fold increase in extracellular AK activity)) was 1.1 and the fold induction at 50 µM (E. cloacae; planktonic E. cloacae, positive cutoff 3-fold increase, read-out: AK-based Prestwick library screening result, E. cloacae (fold increase in extracellular AK activity)) was 1.3. For the same compound, the fold induction at 50 µM (E. coli; planktonic E. coli, positive cutoff 3-fold increase, read-out: AK-based Prestwick library screening result, E. coli (fold increase in extracellular AK activity)) was 1.2.
Compound `CC(C)OC(=O)C(C)(C)Oc1ccc(C(=O)c2ccc(Cl)cc2)cc1` [Fenofibrate] has a fold induction at 50 µM [1, 10] of 0.8, a fold induction at 50 µM [2, 11] of 0.7 and a fold induction at 50 µM (E. faecium; [12]) of 0.8. It also gave a fold induction at 50 µM (P. aeruginosa; [13]) of 0.8, a fold induction at 50 µM (K. pneumoniae; [14]) of 0.6 and a fold induction at 50 µM (E. cloacae; [15]) of 1.2. The fold induction at 50 µM (E. coli; [16]) was 0.8.
Work on `CC(CCc1ccccc1)NCC(O)c1ccc(O)c(C(N)=O)c1` (centres unmarked) [Labetalol hydrochloride] yielded a fold induction at 50 µM [1, 10] of 0.8, a fold induction at 50 µM [2, 11] of 0.9 and a fold induction at 50 µM (E. faecium; [12]) of 0.9. The fold induction at 50 µM (P. aeruginosa; [13]) was 0.9, the fold induction at 50 µM (K. pneumoniae; [14]) was 0.7 and the fold induction at 50 µM (E. cloacae; [15]) was 1.3. For the same compound, the fold induction at 50 µM (E. coli; [16]) was 0.9.
